System: 2,5DHP dioxygenase (PicD)
Experiment: spectrophotometric […],5DHP disappearance at […] nm
Type: biochemical, Alcaligenes faecalis
Settings: 1 mM Fe2+; 50 mM PBS pH 7.0; 25 °C

Km: 65.7 ± 6.27 µM
Compound: Oc1ccc(O)nc1 [2,5DHP, 2,5-dihydroxypyridine]

Source: paper doi:10.1101/530550v1 (biorxiv, 2019)
